Patent publication US12343400B2, “Brain tumor-targeting peptide and application thereof” (priority 2018, dated 2025)
Where a SMILES comes first, the peptide text is derived from it. Bridges are numbered along the chain shown (N, C = ends). Where no end group is shown, it is not given here. The star is where a group is joined. Paclitaxel(2'-O-succinyl) = CC(=O)O[C@H]1C(=O)[C@@]2(C)[C@H]([C@H](OC(=O)c3ccccc3)[C@]3(O)C[C@H](OC(=O)[C@H](OC(=O)CCC(=O)*)[C@@H](NC(=O)c4ccccc4)c4ccccc4)C(C)=C1C3(C)C)[C@]1(OC(C)=O)CO[C@@H]1C[C@@H]2O

Assays:
U87MG brain glioma = assay: Survival time of brain glioma model mice; assay type: in vivo, nude mice; conditions: tail vein, equal dose
Procedure: On the first day, 10^6 U87MG cells were inoculated at the right caudate nucleus of nude mice of 6-8 weeks old. Three days later, a solvent or equal dose of paclitaxel or PBL001 was administered via the tail vein, and the survival time of each group of mice was recorded, as shown in FIG. 13.

U87 brain tumors = conditions: mouse, in vivo
Procedure: Cyanine5.5 NHS ester labeling reagent of the Lumiprobe brand was used to fluorescently label each short peptide, and each short peptide was labeled with one fluorescent molecule. […] The fluorescence intensity per unit area was calculated for the brain tumor site and other brain sites respectively, and the enrichment factor of the corresponding polypeptide at the tumor site can be obtained by dividing the fluorescence intensity per unit area at the brain tumor site by the fluorescence intensity per unit area at other brain sites.

u87 brain glioma = assay: Enrichment of fluorescent short peptides in brain and tumor of u87 brain glioma model mice; assay type: in vivo, nude mice
Procedure: u87 brain glioma cells were cultivated. When the cells grew to a sufficient amount, the cells were taken, 8-weeks old nude mice were selected, the brains were located, and 5× 10^5 cells were injected at the location for brain tumorigenesis. U87 tumorigenesis cell line is a cell line with luciferase gene transferred, and the mouse imager can be used to observe the tumorigenesis effect in real time.
After tumorigenesis of the tumor model mice became stable, 100 μl of solution of short peptides labeled with fluorescent molecules was injected into the tail veins. A short peptide Angiopep 2, which was from the Angiochem company and was reported in an article to be able to cross the blood-brain barrier, was selected as a reference control. It is currently reported that this short peptide has excellent applications in crossing the blood-brain barrier and targeting brain tumors. The negative control was fluorescent molecule cy5.5 of the same amount of fluorescence equivalent. After the tail vein injection, the small animal in vivo imaging system IVIS was used to check the brain fluorescence. 100 μl of 5 mg/ml luciferase reaction substrate was injected into the intraperitoneal cavity. After 5 minutes, the small animal imaging system was used to check the brain tumors.
The brains of the mice were taken and the fluorescence of the brains was compared.

Compound: CC[C@H](C)[C@H](NC(=O)CNC(=O)[C@H](CCCNC(=N)N)NC(=O)[C@H](CC(C)C)NC(=O)[C@H](Cc1ccccc1)NC(=O)[C@H](CC(N)=O)NC(=O)[C@H](CC(N)=O)NC(=O)[C@H](CCCNC(=N)N)NC(=O)[C@H](CCCCNC(=O)CCC(=O)O[C@@H](C(=O)O[C@H]1C[C@@]2(O)[C@@H](OC(=O)c3ccccc3)[C@@H]3[C@]4(OC(C)=O)CO[C@@H]4C[C@H](O)[C@@]3(C)C(=O)[C@H](OC(C)=O)C(=C1C)C2(C)C)[C@@H](NC(=O)c1ccccc1)c1ccccc1)NC(=O)[C@@H]1CCCN1C(=O)[C@H](CCCNC(=N)N)NC(=O)CNC(=O)CNC(=O)[C@H](Cc1ccc(O)cc1)NC(=O)[C@H](Cc1ccccc1)NC(=O)[C@@H](NC(=O)CCC(=O)O[C@@H](C(=O)O[C@H]1C[C@@]2(O)[C@@H](OC(=O)c3ccccc3)[C@@H]3[C@]4(OC(C)=O)CO[C@@H]4C[C@H](O)[C@@]3(C)C(=O)[C@H](OC(C)=O)C(=C1C)C2(C)C)[C@@H](NC(=O)c1ccccc1)c1ccccc1)[C@@H](C)O)C(=O)N[C@@H](CCCNC(=N)N)C(=O)N[C@@H](CO)C(=O)N[C@@H](CCCNC(=N)N)C(=O)NCC(=O)N[C@@H](CC(=O)O)C(=O)O [PBL001] ({Paclitaxel(2'-O-succinyl)}-TFYGGRPK(Paclitaxel(2'-O-succinyl))RNNFLRGIRSRGD-OH)
- toxic and side effects compared with paclitaxel (U87MG brain glioma): lower toxic and side effects

Compound: CC[C@H](C)[C@H](NC(=O)CNC(=O)[C@H](CCCNC(=N)N)NC(=O)[C@H](CC(C)C)NC(=O)[C@H](Cc1ccccc1)NC(=O)[C@H](CC(N)=O)NC(=O)[C@H](CC(N)=O)NC(=O)[C@H](CCCNC(=N)N)NC(=O)[C@H](CCCCN)NC(=O)[C@@H]1CCCN1C(=O)[C@H](CCCNC(=N)N)NC(=O)CNC(=O)CNC(=O)[C@H](Cc1ccc(O)cc1)NC(=O)[C@H](Cc1ccccc1)NC(=O)[C@@H](N)[C@@H](C)O)C(=O)N[C@@H](CCCNC(=N)N)C(=O)N[C@H]1CSSC[C@@H](C(=O)O)NC(=O)[C@H](CC(=O)O)NC(=O)[C@@H]2CCCN2C(=O)CNC(=O)[C@H](CCCCN)NC(=O)[C@H](CC(=O)O)NC(=O)CNC(=O)[C@H](CCCNC(=N)N)NC1=O [SEQ ID NO:8] (H-TFYGGRPKRNNFLRGIRCRGDKGPDC-OH; disulfide 18-26; N-terminus and C-terminus assumed)
- tumor enrichment (enrichment factor tumor site / other brain sites) compared to SEQ ID NO:2 peptide (U87 brain tumors): not as significant as the other three synthesized polypeptides

Compound: TFYGGRPKRNNFLRGIRSRGD [Pb001]
- brain fluorescence intensity relative to fluorescently labeled reference peptide Angiopep2 (u87 brain glioma; brain glioma model mice (FIG. 6)): 1.2 times
- fluorescence accumulation in the brain tumor site (u87 brain glioma; brain glioma model mice (FIG. 7)): obvious fluorescence accumulation
- brain enrichment amount compared with fluorescently labeled reference peptide Angiopep2 (u87 brain glioma; brain glioma model mice, tail vein injection, after perfusion (FIG. 5)): better than that of the fluorescently labeled reference peptide Angiopep2
